# According to patent publication US20250314636A1, “METHOD OF PREPARING AND EXPANDING A POPULATION OF IMMUNE CELLS FOR CANCER THERAPY, POTENCY ASSAY FOR TUMOR RECOGNITION, BIOLOGICAL VACCINE PREPARATION AND EPITOPETARGET FOR ANTIBODIES” (FUNDAÇÃO D. ANNA DE SOMMER CHAMPALIMAUD E DR. CARLOS MONTEZ …, priority 2022, published 2025):
# Like-named read-outs stand apart in the source and are kept apart here.
# Tests used:
# PANC-1 = assay: Cellular recognition assay: allogeneic tumor cell line PANC-1; format: cell-based, human; settings: CD1d restricted IFN-γ production
# Experimental: All antibodies are commercially available.
# siRNA against MR1 was used to silence MR1 expression using Silencer Select Pre-designed siRNA (Ambion, Thermo Fisher)). A scramble siRNA was used as negative control (Ambion, Thermo Fisher). Briefly, target cells were seeded 24 h before transfection, both siRNAs were used at 10 μM with lipofectamine RNA iMAX diluted in OptiMEM, incubated for 5 minutes, and added on top of the cells. Cells were incubated for 48 h before being used on the respective assays.
# Autologous tumor, confirmed by standard histology, was viably snap frozen and then thawed to be used as targets in recognition assays once TIL had been expanded. Small autologous tumor pieces (1 mm^3) from tumor areas that contained tumor cells were tested in duplicates. TIL were incubated with tumor pieces or allogeneic tumor cells in CellGenix GMP DC media supplemented with 10% serum in the presence of IL-2 (50 IU/mL) and IL-15 (10 IU/mL) for testing MAIT—cells. TCR αβ T-cells or TCR γδ cells were tested for autologous or allogeneic tumor recognition using 100 IU IL-2/mL and 100 IU IL-15/mL; or using 100 IU IL-7/mL combined with 100 IU IL-15/mL. […]
# PBMCs = assay: Peptide recognition assay in PBMCs (IFN-γ in supernatant, 7 days); format: cell-based, human; settings: for IFN-γ production, PBMCs: 10e4 PBMC/well co-cultured with the peptide for 7 days, supernatant tested; for PBMCs IFN-y: PBMCs harvested same day as skin lesion
# Experimental: (§1) Peptides from tumor-associated antigens (TAAs), listed in Table 5 were placed at 1 ug/well in duplicates using anti-CD3 at 30 ng/mL as well as PHA at 5 μg/mL as positive controls.
# (§2) The differences in TIL versus PBMCs can also be defined by peptide reactivity. 10e^4 TIL or 10e^4 PBMC/well were co-cultured with the peptides listed in Table 11 below for 7 days and the supernatants were tested for IFN-γ production.
# TIL [1] = assay: Peptide recognition assay in TIL (IFN-γ ELISA / IL-17 in supernatant, 7 days); format: cell-based, human; parameters: IFN-γ production, TIL: unit not given here; settings: for IFN-γ production, TIL: 10e4 TIL/well co-cultured with the peptide for 7 days, supernatant tested; for Pancreatic TIL D1599 IFN-y / Pancreatic TILD1599 IL 17: Pancreatic TIL D1599; for IFN-γ production (in words): positive controls
# Experimental: as §1, §2
# TIL [2] = tested on: TIL
# Experimental: TIL were seeded at 10^4/well in medium with 10% human serum added 24 h later and reduced cytokine concentrations (IL-2 at 100 IU/mL, IL-15 at 100 IU/mL). Supernatants were tested for IFN-γ production with the Human IFN-γ ELISA basic kit (HRP) (Mabtech, 3420-1H-6) according to the manufacturer's instructions. The assay can also be performed using IL-7 at 100 IU/mL and 100 IU IL-15/mL).
# MHC class I responses were blocked using mAb clone w6/32 (mouse IgG2a) at 10 μg/mL, anti-HLA-DR clone L243 (mouse IgG2a) at 10 μg/mL, anti-HLA-DP clone B7/21 (mouse IgG3) at 10 μg/mL, anti-CD1d clone CD1d42 (mouse IgG1) at 10 μg/mL. Isotype control antibodies included mouse IgG2a and mouse IgG1 at 10 μg/mL. MR1 responses were blocked using the mAb clone 26.5 (mouse IgG2a) at 10 μg/mL. All antibodies are commercially available.
# [3] = tested on: Posterior skin lesion T-cells; assay: Peptide recognition by T-cells expanded from skin lesions (IFN-γ, 7 days); format: cell-based, human; settings: T-cells expanded from skin lesion of patient with solid cancer
# Experimental: as §1
# [4] = TIL that reacted against Human U11/U12 snRNP 35 kDa protein (81-90) tailored for HLA-B3501, + anti-ABC
# [5] = TIL that reacted against Human U11/U12 snRNP 35 kDa protein (81-90) tailored for HLA-B3501, + anti-DR
# [6] = TIL that reacted against Human U11/U12 snRNP 35 kDa protein (81-90) tailored for HLA-B3501, no blocking antibody
# [7] = TIL that reacted against SARS-CoV-2 spike (212-220) tailored for HLA-B3501, + anti-ABC
# [8] = TIL that reacted against SARS-CoV-2 spike (212-220) tailored for HLA-B3501, + anti-DR
# [9] = TIL that reacted against SARS-CoV-2 spike (212-220) tailored for HLA-B3501, no blocking antibody
molecule,measurement,setting,value
Cc1oncc1C(=O)Nc1ccc(C(F)(F)F)cc1 [Leflunomide],PANC-1 recognition by γδ+ TIL after pretreatment of PANC-1 cells,PANC-1,not changed
PVTSLSSVSTGDTTP,"IFN-γ production, PBMCs",PBMCs,0
same,"IFN-γ production, TIL",TIL [1],0
COc1cccc2c1C(=O)c1c(O)c3c(c(O)c1C2=O)C[C@@](O)(C(=O)CO)C[C@@H]3O[C@H]1C[C@H](N)[C@H](O)[C@H](C)O1 [doxorubicin],PANC-1 recognition by γδ+ TIL after pretreatment of PANC-1 cells,PANC-1,not changed
MALPTARPLLGSCGT,"IFN-γ production, PBMCs",PBMCs,0
same,"IFN-γ production, TIL",TIL [1],0
TPLPVTDTSSASTGH,"IFN-γ production, PBMCs",PBMCs,0
same,"IFN-γ production, TIL",TIL [1],0
LVVVGAVGVGKSALT,"IFN-γ production, PBMCs",PBMCs,0
same,"IFN-γ production, TIL",TIL [1],0
LP(V)RDLVTGF,IFN-γ Production,TIL [2]; [4],1908.56
same,IL-17 Production,TIL [2]; [4],81.91
same,IFN-γ Production,TIL [2]; [5],1509.64
same,IL-17 Production,TIL [2]; [5],444.01
same,IFN-γ Production,TIL [2]; [6],2444.61
same,IL-17 Production,TIL [2]; [6],330.14
same,IFN-γ Production,TIL [2]; [7],879.62
same,IL-17 Production,TIL [2]; [7],0.00
same,IFN-γ Production,TIL [2]; [8],1289.42
same,IL-17 Production,TIL [2]; [8],420.07
same,IFN-γ Production,TIL [2]; [9],1230.50
same,IL-17 Production,TIL [2]; [9],372.84
YKLVVVGADGVGKSALT,"IFN-γ production, PBMCs",PBMCs,0
same,"IFN-γ production, TIL",TIL [1],0
TPLPVTDNSSASTGD,"IFN-γ production, PBMCs",PBMCs,0
same,"IFN-γ production, TIL",TIL [1],0
KLVVVGAVGVGKSAL,"IFN-γ production, PBMCs",PBMCs,0
same,"IFN-γ production, TIL",TIL [1],0
LQGGIPNGYLVLDLS,"IFN-γ production, PBMCs",PBMCs,0
same,"IFN-γ production, TIL",TIL [1],0
"OKT3: anti-CD3 directed antibody crosslinking the T-cell receptor, 30 ng/ml from Biolegend or Human Cell [reference compound]","IFN-γ production, PBMCs",PBMCs,63
same,PBMCs IFN-y,PBMCs; first PBMCs column,0.0 pg/ml/7 days
same,PBMCs IFN-y,PBMCs; second PBMCs column,0.0 pg/ml/7 days
same,"IFN-γ production, TIL",TIL [1],0
same,Pancreatic TIL D1599 IFN-y,TIL [1],200 pg/mL
same,Pancreatic TILD1599 IL 17,TIL [1],0 pg/mL
same,IFN-γ production (in words),TIL [1]; TIL D1599,Strong IFN-γ production
same,IFN-γ Production,TIL [2]; [6],3333.24
same,IL-17 Production,TIL [2]; [6],417.70
same,IFN-γ Production,TIL [2]; [9],2540.06
same,IL-17 Production,TIL [2]; [9],305.99
same,Posterior skin lesion T-cells IFN-y,[3],27.0 pg/ml/7 days
PVTSPSSESTGHAIP,"IFN-γ production, PBMCs",PBMCs,0
same,"IFN-γ production, TIL",TIL [1],0
"phytohemagglutinin [PHA, reference compound]","IFN-γ production, PBMCs",PBMCs,71
same,PBMCs IFN-y,PBMCs; first PBMCs column,165.7 pg/ml/7 days
same,PBMCs IFN-y,PBMCs; second PBMCs column,165.7 pg/ml/7 days
same,"IFN-γ production, TIL",TIL [1],1336
same,Pancreatic TIL D1599 IFN-y,TIL [1],417 pg/mL
same,Pancreatic TILD1599 IL 17,TIL [1],4 pg/mL
same,IL-17 production (in words),"TIL [1]; positive control, TIL D1599",only limited amount of IL-17 production
same,IFN-γ production (in words),TIL [1]; TIL D1599,Strong IFN-γ production
same,Posterior skin lesion T-cells IFN-y,[3],901.0 pg/ml/7 days
LDILDTAGKEEYSAMRD,"IFN-γ production, PBMCs",PBMCs,0
same,"IFN-γ production, TIL",TIL [1],0
YKLVVVGASGVGKSALT,"IFN-γ production, PBMCs",PBMCs,0
same,"IFN-γ production, TIL",TIL [1],0
LDVLYPKARLAFQNM,"IFN-γ production, PBMCs",PBMCs,0
same,"IFN-γ production, TIL",TIL [1],0
PVTSPSSASTGHAIP,"IFN-γ production, PBMCs",PBMCs,0
same,"IFN-γ production, TIL",TIL [1],0
TTPLPVTIPSSASSG,"IFN-γ production, PBMCs",PBMCs,0
same,"IFN-γ production, TIL",TIL [1],0
PVTSTSSASTGHATP,"IFN-γ production, PBMCs",PBMCs,0
same,"IFN-γ production, TIL",TIL [1],0
GIPFIETSTKTRQRVED,"IFN-γ production, PBMCs",PBMCs,0
same,"IFN-γ production, TIL",TIL [1],85
LP(V)RDLPQGF,IFN-γ Production,TIL [2]; [4],2062.87
same,IL-17 Production,TIL [2]; [4],12.68
same,IFN-γ Production,TIL [2]; [5],1974.19
same,IL-17 Production,TIL [2]; [5],257.46
same,IFN-γ Production,TIL [2]; [6],2611.08
same,IL-17 Production,TIL [2]; [6],238.70
same,IFN-γ Production,TIL [2]; [7],138.58
same,IL-17 Production,TIL [2]; [7],0.00
same,IFN-γ Production,TIL [2]; [8],1057.65
same,IL-17 Production,TIL [2]; [8],428.92
same,IFN-γ Production,TIL [2]; [9],1457.59
same,IL-17 Production,TIL [2]; [9],462.99
WAVRPQDLDTCDPRQ,"IFN-γ production, PBMCs",PBMCs,0
same,"IFN-γ production, TIL",TIL [1],0
